Results as given in patent publication US20250042862A1, “AROMATIC HETEROCYCLIC COMPOUND AND APPLICATION THEREOF” (Shanghai Institute of Materia Medica, Chinese Academy of …, priority 2021, published 2025).

Target: human recombinant LSD1 protein (Homo sapiens (Human), UniProt O60341)
Assay: In vitro enzyme inhibition activity assay - LSD1 (Lance Ultra TR-FRET)
Assay type: biochemical
Details: all compounds tested in the form of hydrochloride
Method: The purpose of this experiment was to test the in vitro inhibitory activity of the compounds against LSD1. The human recombinant LSD1 protein used in the experiment was purchased from Active Motif, and the enzyme level activity testing assay of LSD1 was performed using the Lance Ultra LSD1 Histone H3 Lysine 4 Demethylase Assay Kit (PerkinElmer). Tris-buffer (50 mMTris-HCl, 50 mMNaCl, 0.01% Tween-20, 1 mM DTT, 10 μM FAD, 10% glycerol, pH 9.0) was first prepared, and after preparation, the LSD1 fractions required for test were placed in this buffer and incubated for one hour at room temperature; the fractions included 4 μL of substrate solution ([…] Bio-H3K4me2, 1-24aa), 4 μL of enzyme solution (4 nM LSD1), and 2 μL of inhibitor in a 384-well microplate. After these operations, another 5 μL of assay mixture containing Eu-labeled H3K4me0 antibody and ULight-Streptavidin anti-biotin protein was added to the system, after which the fluorescence intensity of the components to be tested was detected by using Envision (PerkinElmer) in TR-FRET mode (excitation wavelength of 320 nm, emission wavelength of 620 nm). The test was repeated a total of three times to minimize errors. The final IC50 data were calculated by the software GraphPad Prism 5, and finally the sigmoidal dose-response (variable slope) method was used to obtain the fitted curve.
The LSD1 inhibitory activities of representative compounds of the present application as well as the positive control compound CC90011 were provided in Table 2. All compounds were tested in the form of hydrochloride.

Row | IC50 [nM] | SMILES
1 | ≤ 30 | COC1=CC=C(c2c(-c3ccc(C#N)c(F)c3)nc(N3CCC(N)CC3)n(C)c2=O)CC1F (stereo not drawn) [CC90011, reference compound]
2 | 30 to 300 | Cc1ccccc1-c1ccc2nc(N3CCC(N)CC3)nc(-c3ccc(C#N)c(F)c3)c2c1 [Compound 6, 4-(2-(4-aminopiperidin-1-yl)-6-(o-methylphenyl)quinazolin-4-yl)-2-fluorobenzonitrile]
3 | 30 to 300 | Cn1ncc2cc(-c3ccc4nc(N5CCC(N)CC5)nc(-c5ccc(C#N)c(F)c5)c4c3)ccc21 [Compound 9, 4-(2-(4-aminopiperidin-1-yl)-6-(1-methyl-1H-indazol-5-yl)quinazolin-4-yl)-2-fluorobenzonitrile]
4 | 30 to 300 | Cn1ncc2c(-c3ccc4nc(N5CCC(N)CC5)nc(-c5ccc(C#N)c(F)c5)c4c3)cccc21 [Compound 10, 4-(2-(4-aminopiperidin-1-yl)-6-(1-methyl-1H-indazol-4-yl)quinazolin-4-yl)-2-fluorobenzonitrile]
5 | 30 to 300 | N#Cc1ccc(-c2nc(N3CCC(N)CC3)nc3ccc(-c4cccc(F)c4F)cc23)cc1F [Compound 17, 4-(2-(4-aminopiperidin-1-yl)-6-(2,3-difluorophenyl)quinazolin-4-yl)-2-fluorobenzonitrile]
6 | ≤ 30 | N#Cc1ccc(-c2nc(N3CCC(N)CC3)nc3ccc(-c4c(F)cccc4Cl)cc23)cc1F [Compound 22, 4-(2-(4-Aminopiperidin-1-yl)-6-(2-chloro-6-fluorophenyl)quinazolin-4-yl)-2-fluorobenzonitrile]
7 | ≤ 30 | N#Cc1ccc(-c2nc(N3CCC(N)CC3)nc3ccc(-c4cccc(F)c4C(F)(F)F)cc23)cc1F [Compound 23, 4-(2-(4-Aminopiperidin-1-yl)-6-(3-fluoro-2-(trifluoromethyl)phenyl)quinazolin-4-yl)-2-fluorobenzonitrile]
8 | 30 to 300 | COc1ccc(-c2ccc3nc(NC[C@@H]4CCNC4)nc(-c4ccc(C#N)c(F)c4)c3c2)cc1F [Compound 36, (R)-2-fluoro-4-(6-(3-fluoro-4-methoxyphenyl)-2-((pyrrolidin-3-ylmethyl)amino)quinazolin-4-yl)benzonitrile]
9 | 30 to 300 | Cc1ccccc1-c1ccc2nc(NC[C@H]3CCNC3)nc(-c3ccc(C#N)c(F)c3)c2c1 [Compound 37, (S)-2-fluoro-4-(2-((pyrrolidin-3-ylmethyl)amino)-6-(o-methylphenyl)quinazolin-4-yl)benzonitrile]
10 | 30 to 300 | N#Cc1ccc(-c2nc(NC[C@H]3CCNC3)nc3ccc(-c4ccccc4OC(F)(F)F)cc23)cc1F [Compound 39, (S)-2-fluoro-4-(2-((pyrrolidin-3-ylmethyl)amino)-6-(2-(trifluoromethoxy)phenyl)quinazolin-4-yl)benzonitrile]
11 | 30 to 300 | N#Cc1ccc(-c2nc(NC[C@H]3CCNC3)nc3ccc(-c4ccccc4F)cc23)cc1F [Compound 41, (S)-2-fluoro-4-(2-((pyrrolidin-3-ylmethyl)amino)-6-(2-fluorophenyl)quinazolin-4-yl)-2-fluorobenzonitrile]
12 | ≤ 30 | Cc1cccc(C)c1-c1ccc2nc(NC[C@H]3CCNC3)nc(-c3ccc(C#N)c(F)c3)c2c1 [Compound 45, (S)-4-(6-(2,6-dimethylphenyl)-2-((pyrrolidin-3-ylmethyl)amino)quinazolin-4-yl)-2-fluorobenzonitrile]
13 | ≤ 30 | Cc1cc(C)c(-c2ccc3nc(NC[C@H]4CCNC4)nc(-c4ccc(C#N)c(F)c4)c3c2)c(C)c1 [Compound 46, (S)-4-(6-(2,4,6-trimethylphenyl)-2-((pyrrolidin-3-ylmethyl)amino)quinazolin-4-yl)-2-fluorobenzonitrile]
14 | 30 to 300 | Cc1c(F)cccc1-c1ccc2nc(NC[C@H]3CCNC3)nc(-c3ccc(C#N)c(F)c3)c2c1 [Compound 47, (S)-2-fluoro-4-(6-(3-fluoro-2-methylphenyl)-2-((pyrrolidin-3-ylmethyl)amino)quinazolin-4-yl)benzonitrile]

The next lines start with the molecule.

Row | SMILES | IC50 [nM]
15 | Cc1noc(C)c1-c1ccc2nc(N3CCC(N)CC3)nc(-c3ccc(C#N)c(F)c3)c2c1 [Compound 3, 4-(2-(4-aminopiperidin-1-yl)-6-(3,5-dimethylisoxazol-4-yl)quinazolin-4-yl)-2-fluorobenzonitrile] | 30 to 300
16 | Cc1cccc(-c2ccc3nc(N4CCC(N)CC4)nc(-c4ccc(C#N)c(F)c4)c3c2)c1 [Compound 8, 4-(2-(4-aminopiperidin-1-yl)-6-(m-methylphenyl)quinazolin-4-yl)-2-fluorobenzonitrile] | 30 to 300
17 | Cn1ncc2cccc(-c3ccc4nc(N5CCC(N)CC5)nc(-c5ccc(C#N)c(F)c5)c4c3)c21 [Compound 11, 4-(2-(4-aminopiperidin-1-yl)-6-(1-methyl-1H-indazol-7-yl)quinazolin-4-yl)-2-fluorobenzonitrile] | ≤ 30
18 | Cc1cccc(C)c1-c1ccc2nc(N3CCC(N)CC3)nc(-c3ccc(C#N)c(F)c3)c2c1 [Compound 12, 4-(2-(4-Aminopiperidin-1-yl)-6-(2,6-dimethylphenyl)quinazolin-4-yl)-2-fluorobenzonitrile] | ≤ 30
19 | N#Cc1ccc(-c2nc(N3CCC(N)CC3)nc3ccc(-c4ccccc4OC(F)(F)F)cc23)cc1F [Compound 13, 4-(2-(4-aminopiperidin-1-yl)-6-(2-(trifluoromethoxy)phenyl)quinazolin-4-yl)-2-fluorobenzonitrile] | 30 to 300
20 | N#Cc1ccc(-c2nc(N3CCC(N)CC3)nc3ccc(-c4ccccc4C(F)(F)F)cc23)cc1F [Compound 14, 4-(2-(4-aminopiperidin-1-yl)-6-(2-(trifluoromethyl)phenyl)quinazolin-4-yl)-2-fluorobenzonitrile] | ≤ 30
21 | N#Cc1ccc(-c2nc(N3CCC(N)CC3)nc3ccc(-c4ccccc4F)cc23)cc1F [Compound 15, 4-(2-(4-aminopiperidin-1-yl)-6-(2-fluorophenyl)quinazolin-4-yl)-2-fluorobenzonitrile] | 30 to 300
22 | N#Cc1ccc(-c2nc(N3CCC(N)CC3)nc3ccc(-c4ccccc4Cl)cc23)cc1F [Compound 16, 4-(2-(4-aminopiperidin-1-yl)-6-(2-chlorophenyl)quinazolin-4-yl)-2-fluorobenzonitrile] | ≤ 30
23 | N#Cc1ccc(-c2nc(N3CCC(N)CC3)nc3ccc(-c4c(Cl)cccc4Cl)cc23)cc1F [Compound 20, 4-(2-(4-aminopiperidin-1-yl)-6-(2,6-dichlorophenyl)quinazolin-4-yl)-2-fluorobenzonitrile] | ≤ 30
24 | Cc1cccc(Cl)c1-c1ccc2nc(N3CCC(N)CC3)nc(-c3ccc(C#N)c(F)c3)c2c1 [Compound 21, 4-(2-(4-Aminopiperidin-1-yl)-6-(2-chloro-6-methylphenyl)quinazolin-4-yl)-2-fluorobenzonitrile] | ≤ 30
25 | COc1ccc(-c2ccc3nc(N4CCC(N)CC4)nc(-c4ccc(C#N)nc4)c3c2)cc1F [Compound 24, 5-(2-(4-aminopiperidin-1-yl)-6-(3-fluoro-4-methoxyphenyl)quinazolin-4-yl)pyridinecarbonitrile] | 30 to 300
26 | COc1ccc(-c2ccc3nc(N4CCC(N)CC4)nc(-c4ccc(C#N)cc4)c3c2)cc1F [Compound 25, 4-(2-(4-aminopiperidin-1-yl)-6-(3-fluoro-4-methoxyphenyl)quinazolin-4-yl)benzonitrile] | 30 to 300
27 | COc1ccc(-c2ccc3nc(NCC4CCNC4)nc(-c4ccc(C#N)c(F)c4)c3c2)cc1F (stereo not drawn) [Compound 29, 2-Fluoro-4-(6-(3-fluoro-4-methoxyphenyl)-2-((pyrrolidin-3-ylmethyl)amino)quinazolin-4-yl)benzonitrile] | 30 to 300
28 | Cc1ccccc1-c1ccc2nc(NCC3CCNC3)nc(-c3ccc(C#N)c(F)c3)c2c1 (stereo not drawn) [Compound 34, 2-Fluoro-4-(2-((pyrrolidin-3-ylmethyl)amino)-6-(o-methylphenyl)quinazolin-4-yl)benzonitrile] | ≤ 30
29 | COc1ccc(-c2ccc3nc(NC[C@H]4CCNC4)nc(-c4ccc(C#N)c(F)c4)c3c2)cc1F [Compound 35, (S)-2-fluoro-4-(6-(3-fluoro-4-methoxyphenyl)-2-((pyrrolidin-3-ylmethyl)amino)quinazolin-4-yl)benzonitrile] | 30 to 300
30 | Cc1ccccc1-c1ccc2nc(NC[C@@H]3CCNC3)nc(-c3ccc(C#N)c(F)c3)c2c1 [Compound 38, (R)-2-fluoro-4-(2-((pyrrolidin-3-ylmethyl)amino)-6-(o-methylphenyl)quinazolin-4-yl)benzonitrile] | 30 to 300
31 | N#Cc1ccc(-c2nc(NC[C@H]3CCNC3)nc3ccc(-c4cccc(F)c4F)cc23)cc1F [Compound 43, (S)-2-fluoro-4-(2-((pyrrolidin-3-ylmethyl)amino)-6-(2,3-difluorophenyl)quinazolin-4-yl)-2-fluorobenzonitrile] | 30 to 300
32 | Cc1cscc1-c1ccc2nc(NC[C@H]3CCNC3)nc(-c3ccc(C#N)c(F)c3)c2c1 [Compound 44, (S)-2-fluoro-4-(6-(4-methylthiophen-3-yl)-2-((pyrrolidin-3-ylmethyl)amino)quinazolin-4-yl)benzonitrile] | 30 to 300
33 | Cc1cccc(F)c1-c1ccc2nc(NC[C@H]3CCNC3)nc(-c3ccc(C#N)c(F)c3)c2c1 [Compound 48, (S)-2-fluoro-4-(6-(2-fluoro-6-methylphenyl)-2-((pyrrolidin-3-ylmethyl)amino)quinazolin-4-yl)benzonitrile] | ≤ 30
